PubChem BioAssay AID1919016 (Molecular Pharmacology Branch, DTP, NCI, 2023)
Values joined by “and” are separate entries in the source; they are usually repeats but may differ in a detail not shown here. Equal values may be shown once.

Test system: NCI-H196 complex spheroid growth, percent test/control
Assay: Anticancer human tumor NCI-H196 cell line growth inhibition [AhR];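 also: seven days of drug exposure starting three days after plating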;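 as to viability, T/C: 100% = DMSO vehicle control wells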
Settings: for viability, T/C: stronger effect = lower value
Excerpt: Multicellular complex tumor spheroid response to aryl hydrocarbon receptor antagonists in combination with a variety of drugs and investigational agents in selected tumor cell lines
The current study was undertaken to assess response to aryl hydrocarbon receptor antagonists in combination with standard-of-care drugs and investigational agents in solid tumor complex spheroid models. Complex spheroids include a stromal component modeled by human endothelial cells (HUVEC) and fibroblasts modeled by human mesenchymal stem cells (MSCs). The concentration ranges selected for each drug and investigational agent were based upon clinically achievable concentrations if the clinical Cmax of the agent was known.
Compounds. The drugs and investigational agents: BAY 2416964 (NSC825713), GNF351 (NSC835774), CH-223191 (NSC835775), CPI-455 (NSC825282), aza-TdCyd (NSC777586), decitabine (NSC127716), belinostat (NSC758774), entinostat (NSC756642), pevonedistat (NSC761192), tazemetostat (NSC777109), talazoparib (NSC765396), olaparib (NSC753686), selinexor (NSC780203), nedisertib (M3814, NSC802822), bortezomib (NSC756655), venetoclax (NSC766270), doxorubicin (NSC123127), elimusertib (BAY189344, NSC800525), ceralasertib (AZD6738, NSC777638), TAK-243 (NSC785004), alisertib (NSC759677), etoposide (NSC141540), topotecan (NSC609699), eribulin (NSC707389), gemcitabine (NSC613327), carboplatin (NSC241240), cisplatin (NSC119875), and SN-38 (NSC673596) were obtained from the National Cancer Institute (NCI) Developmental Therapeutics Program Chemical Repository (32). The FDA-approved anticancer drug set is available from the Developmental Therapeutics Program at https://dtp.cancer.gov/organization/dscb/obtaining/available plates.htm. […] The stock solutions were prepared in dimethyl sulfoxide (DMSO, Sigma-Aldrich, St. Louis, MO, cat. D2650), except for the platinum compounds which were prepared in saline (Quality Biological, Gaithersburg, MD, cat. 114-055-101), at 800-fold the tested concentration and stored at -70 degrees C prior to their use. All drugs and investigational agents were tested over a range starting from a high concentration at or near the clinical Cmax and decreasing in half-log increments. If the clinical Cmax for an agent had not been determined, the highest concentration tested was 10 microM (Table 1).
Cell Culture. All cells were maintained in an incubator at 37 degrees C and 5% CO2 with 95% humidity. The PDC lines were cultured according to standard operating procedures established by the NCI PDMR (https://pdmr.cancer.gov). Briefly, all PDCs were thawed and cultured in Matrigel-coated flasks prepared with a working solution of 1X Ham's F-12 nutrient mix, without supplementation (Invitrogen, Waltham, MA, cat. 11765054), 100 U/mL penicillin-streptomycin (Invitrogen, cat. 15140122), and 2.5% Matrigel (Corning Inc., Corning, NY, cat. 354248) for the first three passages. All PDCs were cultured in complete DMEM/F-12 media containing advanced DMEM/F-12 (Invitrogen, cat. 12634028), 4.9% defined fetal bovine serum, heat inactivated (HyClone Laboratories Inc., Logan, UT, cat. SH30070.03HI), 389 ng/mL hydrocortisone (Sigma-Aldrich, cat. H4001), 9.7 ng/mL human EGF recombinant protein (Invitrogen, cat. PHG0313), 23.4 microg/mL adenine (Sigma-Aldrich, cat. A2786), 97.3 U/mL penicillin-streptomycin (Invitrogen, cat. 15140122), 1.9 mM L-glutamine (Invitrogen, cat. 25030081), and 9.7 microM Y-27632 dihydrochloride (Tocris Bioscience, Bristol, United Kingdom, cat. 1254). The PDCs were cultured in complete DMEM/F12 media without 10 microM Y-27632 dihydrochloride for at least two passages prior to the screen. The established cell lines NCI-H1341 and […] were cultured in DMEM/F-12, HEPES (Invitrogen, cat. 11330032), 5% defined fetal bovine serum (HyClone Laboratories Inc., cat. SH30070.03), ITS premix universal culture supplement [insulin (5 microg/mL), transferrin (5 microg/mL), and selenious acid (5 ng/mL)] […]

[1] = curve of first compound, second compound 0.1 µM
[2] = curve of first compound, second compound 0.316 µM
[3] = curve of first compound, second compound 1 µM
[4] = curve of first compound, second compound 3.16 µM
[5] = curve of first compound, second compound 10 µM

## CCc1c2c(nc3ccc(O)cc13)-c1cc3c(c(=O)n1C2)COC(=O)[C@]3(O)CC + CC(CO)NC(=O)c1cc(-c2ccc(Cl)cc2)nn(-c2cnn(C)c2)c1=O
[1]
  IC50: > 300 nM
[2]
  IC50: > 300 nM
[3]
  IC50: > 300 nM
[4]
  IC50: > 300 nM
[5]
  IC50: > 300 nM
Second compound 0.1 µM, first compound 0.000949 µM
  viability, T/C: 98%
Second compound 0.1 µM, first compound 0.003 µM
  viability, T/C: 104%
Second compound 0.1 µM, first compound 0.00949 µM
  viability, T/C: 107%
Second compound 0.1 µM, first compound 0.03 µM
  viability, T/C: 105%
Second compound 0.1 µM, first compound 0.0949 µM
  viability, T/C: 103%
Second compound 0.1 µM, first compound 0.3 µM
  viability, T/C: 92.9%
Second compound 0.316 µM, first compound 0.000949 µM
  viability, T/C: 108%
Second compound 0.316 µM, first compound 0.003 µM
  viability, T/C: 116%
Second compound 0.316 µM, first compound 0.00949 µM
  viability, T/C: 113%
Second compound 0.316 µM, first compound 0.03 µM
  viability, T/C: 113%
Second compound 0.316 µM, first compound 0.0949 µM
  viability, T/C: 108%
Second compound 0.316 µM, first compound 0.3 µM
  viability, T/C: 92.2%
Second compound 1 µM, first compound 0.000949 µM
  viability, T/C: 108%
Second compound 1 µM, first compound 0.003 µM
  viability, T/C: 115%
Second compound 1 µM, first compound 0.00949 µM
  viability, T/C: 117%
Second compound 1 µM, first compound 0.03 µM
  viability, T/C: 98.4%
Second compound 1 µM, first compound 0.0949 µM
  viability, T/C: 101%
Second compound 1 µM, first compound 0.3 µM
  viability, T/C: 81.8%
Second compound 3.16 µM, first compound 0.000949 µM
  viability, T/C: 112%
Second compound 3.16 µM, first compound 0.003 µM
  viability, T/C: 110%
Second compound 3.16 µM, first compound 0.00949 µM
  viability, T/C: 105%
Second compound 3.16 µM, first compound 0.03 µM
  viability, T/C: 104%
Second compound 3.16 µM, first compound 0.0949 µM
  viability, T/C: 101%
Second compound 3.16 µM, first compound 0.3 µM
  viability, T/C: 85.3%
Second compound 10 µM, first compound 0.000949 µM
  viability, T/C: 111%
Second compound 10 µM, first compound 0.003 µM
  viability, T/C: 111%
Second compound 10 µM, first compound 0.00949 µM
  viability, T/C: 112%
Second compound 10 µM, first compound 0.03 µM
  viability, T/C: 107%
Second compound 10 µM, first compound 0.0949 µM
  viability, T/C: 107%
Second compound 10 µM, first compound 0.3 µM
  viability, T/C: 87.7%

## CC1(C)CCC(CN2CCN(c3ccc(C(=O)NS(=O)(=O)c4ccc(NCC5CCOCC5)c([N+](=O)[O-])c4)c(Oc4cnc5[nH]ccc5c4)c3)CC2)=C(c2ccc(Cl)cc2)C1
Compound 0.0316 µM
  viability, T/C: 98.2% and 106% and 89%
Compound 0.1 µM
  viability, T/C: 110% and 103% and 101%
Compound 0.316 µM
  viability, T/C: 109% and 97.2% (2×)
Compound 1 µM
  viability, T/C: 109% and 103% and 96.6%
Compound 3.16 µM
  viability, T/C: 93.8% and 103% and 99.2%
Compound 10 µM
  viability, T/C: 104% and 72.5% and 89.6%
Curve of compound
  IC50: > 10000 nM

## Nc1ccccc1NC(=O)c1ccc(CNC(=O)OCc2cccnc2)cc1 + Cc1cncc(-c2nc(NCCc3c[nH]c4ccccc34)c3ncn(C(C)C)c3n2)c1
[1]
  IC50: 478 nM
[2]
  IC50: 614 nM
[3]
  IC50: 540 nM
[4]
  IC50: 651 nM
[5]
  IC50: 591 nM
Second compound 0.1 µM, first compound 0.0316 µM
  viability, T/C: 87.4%
Second compound 0.1 µM, first compound 0.1 µM
  viability, T/C: 74.2%
Second compound 0.1 µM, first compound 0.316 µM
  viability, T/C: 57.6%
Second compound 0.1 µM, first compound 1 µM
  viability, T/C: 38.3%
Second compound 0.1 µM, first compound 3.16 µM
  viability, T/C: 12.1%
Second compound 0.1 µM, first compound 10 µM
  viability, T/C: 0.58%
Second compound 0.316 µM, first compound 0.0316 µM
  viability, T/C: 75.1%
Second compound 0.316 µM, first compound 0.1 µM
  viability, T/C: 78.7%
Second compound 0.316 µM, first compound 0.316 µM
  viability, T/C: 60%
Second compound 0.316 µM, first compound 1 µM
  viability, T/C: 42%
Second compound 0.316 µM, first compound 3.16 µM
  viability, T/C: 13%
Second compound 0.316 µM, first compound 10 µM
  viability, T/C: 0.65%
Second compound 1 µM, first compound 0.0316 µM
  viability, T/C: 96.3%
Second compound 1 µM, first compound 0.1 µM
  viability, T/C: 81.4%
Second compound 1 µM, first compound 0.316 µM
  viability, T/C: 67.4%
Second compound 1 µM, first compound 1 µM
  viability, T/C: 31.9%
Second compound 1 µM, first compound 3.16 µM
  viability, T/C: 11.4%
Second compound 1 µM, first compound 10 µM
  viability, T/C: 0.72%
Second compound 3.16 µM, first compound 0.0316 µM
  viability, T/C: 87.1%
Second compound 3.16 µM, first compound 0.1 µM
  viability, T/C: 85.2%
Second compound 3.16 µM, first compound 0.316 µM
  viability, T/C: 69.8%
Second compound 3.16 µM, first compound 1 µM
  viability, T/C: 38.3%
Second compound 3.16 µM, first compound 3.16 µM
  viability, T/C: 9.78%
Second compound 3.16 µM, first compound 10 µM
  viability, T/C: 1.22%
Second compound 10 µM, first compound 0.0316 µM
  viability, T/C: 82.2%
Second compound 10 µM, first compound 0.1 µM
  viability, T/C: 85.5%
Second compound 10 µM, first compound 0.316 µM
  viability, T/C: 63.5%
Second compound 10 µM, first compound 1 µM
  viability, T/C: 38.1%
Second compound 10 µM, first compound 3.16 µM
  viability, T/C: 8.35%
Second compound 10 µM, first compound 10 µM
  viability, T/C: 1.86%
